Source: US20050222227A1, “Oxazole-amine compounds for the treatment of neurodegenerative disorders” (Pfizer Inc, priority 2004, published 2005)

Tested on: gamma-secretase
Experiment: gamma-secretase activity in a solubilized membrane preparation (cell-free assay)
Assay type: biochemical
Details: according to McLendon et al., read-out: IC50 activity for inhibiting gamma-secretase
Source text: The activity of compounds of the Formula I of the present invention in inhibiting gamma-secretase activity may be determined in a solubilized membrane preparation generally according to the description provided in McLendon et al. Cell-free assays for γ-secretase activity, The FASEB Journal (Vol. 14, December 2000, pp. 2383-2386).

IC50: < 10 µM
SMILES: C/C=C(\C)c1cnc(NC(=O)[C@H](CCC)NC2CCc3cc(F)cc(F)c3C2)o1 (stereo partly drawn) [Example 1, (S)-2-(5,7-difluoro-1,2,3,4-tetrahydronaphthalen-3-ylamino)-N-(5-((E)-but-2-en-2-yl)oxazol-2-yl)pentanamide]
